Consider two molecules from US20180133212A1, “COMBINATION OF A BCL-2 INHIBITOR AND A BROMODOMAIN INHIBITOR FOR TREATING CANCER” (Gilead Sciences, Inc., priority 2016, published 2018).

pEC50: −log10 of the molar value. “And” between values parts separate entries of the source, which are not always exact repeats. Identical values can stand only once. Like-named read-outs stand apart in the source and are kept apart here.

Data set [1] in a line: Clinically relevant exposures (clinical plasma exposure, protein adjusted). It is filed as in vivo. The protocol:
(§1) Clinically relevant doses of Compound A were calculated.
A set of data was selected from the synergy screening to represent clinically relevant concentration ranges of venetoclax and Compound A. […] Cmin and Ctrough of Compound A were similarly adjusted.

The conditions of data set [2]: ABT-199, 400 mg dose, Phase I NHL study; cited from earlier work.
Data set [3] can be described thus: Protein shift: free fraction in human plasma / cell culture media. The class given is in vitro ADME. The protocol: as §1
A set of data was selected from the synergy screening to represent clinically relevant concentration ranges of venetoclax and Compound A. The average concentration of venetoclax (Cav) was estimated at the 400 mg dose adjusted for protein binding using empirically determined free fraction in human plasma/cell culture media. Cmin and Ctrough of Compound A were similarly adjusted.

Another data set concerns Myc protein. Put plainly: Reduction of Myc protein expression by Compound A. It is filed as cell-based, human. Conditions: subset of cell lines of FIG. 1, dose-dependent.
The subject of the next data set is DLBCL and FL cell lines. Put plainly: Annexin V apoptosis assay (flow cytometry). The class given is cell-based, human. The protocol: Apoptosis induced by Compound A was measured by Annexin V staining as detected by flow cytometry. Compound A was diluted two-fold in duplicate to a starting concentration of 5 mM in 100% DMSO, and then serially diluted by three-fold in 100% DMSO in a 96 well plate format to achieve a 500× dose range of 5 mM to 0.76 μM. Serially-diluted Compound A was then further diluted 1:5 in sterile water to generate a 100× stock and finally diluted 1:100 into assay plate wells containing 200 μL of cells. The final concentration of DMSO was 0.2% in 200 μL in the assay wells and the dose range of Compound A was 10 μM to 1.5 nM. Cells were plated at 20,000-80,000 cells per well and assay plates were incubated after compound addition at 37° C. with 5% CO2 for 3 days in growth medium appropriate for each cell line. Control wells on all assay plates included 0.2% DMSO (0% apoptosis on day 3), 1 μM Velcade®, and 1 μM staurosporine (apoptosis control on day 3). Velcade® and staurosporine were used as benchmarks to ensure apoptosis could be achieved in each cell line.
After 72 to 96 hours, the cell compound mixture was transferred to a 96-well deep well conical bottom plate, centrifuged at 300×g, and cell pellets were re-suspended in DPBS. Plates were centrifuged at 300×g, supernatant was decanted, and cell pellets were re-suspended in 500 μl of pre-diluted LIVE/DEAD® Fixable Aqua Dead Cell Stain for 30 minutes at room temperature protected from light. Assay plates were centrifuged at 300×g, supernatant was decanted, and cell pellets were washed twice in 500 μL of DPBS containing 4% FBS. The washed pellets were re-suspended in 100 μL DPBS containing 4% FBS, 5 μL of Annexin V APC was added to each well, and assay plates were incubated for 30 minutes at room temperature, protected from light. Assay plates were washed twice with 500 μL of DPBS containing 4% FBS per well, and cell pellets were finally re-suspended in 250 μL of DPBS containing 4% FBS.
Flow cytometric sampling of 20,000 total events within a forward scatter and side-scatter gate (P1) per well were collected on a BD FACS Canto II instrument with DIVA software (San Jose, Calif.) using a high throughput screen auto-sampler for analysis of apoptosis. Within the P1 gate Annexin V^+/LIVE/DEAD^− and Annexin V^+/LIVE/DEAD^+ cells were digitally monitored. Single- or double-labeled cells were gated, percentages of Annexin V-positive cells in each population were recorded and combined, and data were extracted to a flow cytometry standard file (fcs). Mean percentages of Annexin V-positive cells were determined for the positive control (Velcade® and staurosporine at 1 μM) and negative wells (0.2% DMSO) to ensure the assay performed as expected for each cell line on each experimental day.
EC50 values for each compound were calculated based on log concentration of drug and percent Annexin V-positive cells using a four-parameter logistical fit equation in Prism 6.01 of the GraphPad software package. The percentage of apoptosis at EC50 was interpolated from the curve fit for each cell line. […] For an experiment to be valid, the % baseline apoptosis for a given cell line was required to be <35%.
(§2) The activity of Compound A to induce apoptosis or inhibit cell growth was assessed across a panel of DLBCL cell lines. DLBCL cell lines were subjected to a ten point dose response of Compound A (range 0.5 nM-10,000 nM, 3× dilution series) and assessed for cell growth inhibition by CTG or apoptosis by AnnexinV staining after three or four days.
For orientation: A flow cytometer gives signals particle by particle.

The test system of another data set is DLBCL cell lines. Put plainly: Single agent cell growth assessment (Cell Titer Glo). It is filed as cell-based. Conditions: Homo sapiens, 96 h, CTG, three or four days. The protocol: Compound A was serially diluted by three-fold in 100% DMSO in a 96 well plate format in duplicate dose curves to achieve a dose range of 10 mM to […] as a 1000× stock. Serially-diluted 1000× Compound A was then further diluted 1:100 in RPMI-1640 without additives to generate a 10× stock and finally diluted 1:10 into assay plate wells containing 100 μL of cells. The final concentration of DMSO was 0.1% in 111 μL of final volume in the assay wells and the dose range of Compound A was 10 μM to 0.5 nM. […] Cell viability was assessed using Cell Titer Glo (CTG, Promega, Madison, Wis.) following the manufacturer's protocol. Luminescence was measured on an EnSpire Multimode Plate Reader (Perkin Elmer, Waltham, Mass., Model 2300-001M).
A replicate assay plate was created at study initiation, processed immediately for cell viability by CTG, and these values represented 0% growth (day 0). […] Curve fittings were applied with a four parameter variable slope model and the following three calculations were determined using the curve fits. […]
as §2

Broadly, the Cmax is the peak of the concentration-time curve. Turning to `CC1(C)CCC(CN2CCN(c3ccc(C(=O)NS(=O)(=O)c4ccc(NCC5CCOCC5)c([N+](=O)[O-])c4)c(Oc4cnc5[nH]ccc5c4)c3)CC2)=C(c2ccc(Cl)cc2)C1` [venetoclax, reference compound], the Cmax was found to be 536 nM in data set [1] (ABT-199, 400 mg dose, cell culture media adjusted, read-out: CCM protein adjusted Cmax); 536 nM in data set [1] (human, plasma, 400 mg, ABT-199, 400 mg dose, cell culture media adjusted, read-out: CCM protein adjusted Cmax); 2300 nM in data set [1] (human, plasma, 400 mg, ABT-199, 400 mg dose, read-out: exposures Cmax). In addition, in data set [2], the “exposures Cmax” value is 2000 ng/mL. Besides, the “exposures Cmin” value in data set [2] was 200 ng/mL. The CCM/buffer entry in data set [3] (free fraction, cell culture media) is reported as “CCM/buffer 0.44%”. Besides, the HP/buffer result in data set [3] (free fraction, human plasma) was “HP/buffer 0.10%”.

As usually defined, the pEC50 is the EC50 on a negative log10 scale, so that one unit is a factor of ten. Turning to `Cc1noc(C)c1-c1cc(C(O)(c2ccccn2)c2ccccn2)c2nc(C3CC3)[nH]c2c1` [Compound A], the “CCM adjusted Cave” value in data set [1] (human, in vivo) is 40 nM. The “CCM adjusted Cmin” value in data set [1] (human, in vivo) stood at 10 nM. Also, the Cmax is 111 nM in data set [1] (human, in vivo, 4 mg, CCM protein adjusted CCM Cmax); 279 ng/mL and 638 nM in data set [1] (human, in vivo, 4 mg, exposures Cmax); 90 nM in data set [1] (human, in vivo, CCM adjusted Cmax); about 113 nM in data set [1] (human, in vivo, protein adjusted Cmax concentration). In addition, the pEC50 in the data set on Myc protein (Homo sapiens) is at least 6.81; in the data set with Myc protein, 6.55; in the data set on DLBCL and FL cell lines (Homo sapiens, one responding cell line with EC50 above 113 nM), 5.60; in the data set with DLBCL and FL cell lines (individual responding cell lines, three or four days) it was > 6.95 and 6.56 and 6.06; with DLBCL cell lines (DLBCL cell lines of FIG. 1, read-out: growth inhibition EC50 range across cell lines), 7.14 to 7.92; in the data set on DLBCL cell lines (mean over subset of cell lines of FIG. 1, read-out: growth inhibition mean EC50), 7.40. Besides, the CCM/buffer entry in data set [3] is reported as “CCM/buffer 67%”. The HP/buffer entry in data set [3] (human) is listed as “HP/buffer 11.7”. The “% apoptosis by 1 μM” value in the data set with DLBCL and FL cell lines (cell lines that did not undergo apoptosis (10 of 21; 8 of the FIG. 1 subset)) was under 30%. The “% Annexin V positive after treatment with 1 μM” value in the data set with DLBCL and FL cell lines (eight cell lines with EC50 <113 nM) was over 30%. The “lines refractory to Bcl-2 inhibition that undergo apoptosis” value in the data set with DLBCL and FL cell lines (of the 8 lines refractory to venetoclax (FIG. 4)) amounted to 6. In addition, in the data set on DLBCL and FL cell lines (of twenty-one DLBCL and FL cell lines, single agent), the “number of cell lines that underwent apoptosis” value came out at 11. For the same molecule, in the data set on DLBCL and FL cell lines (share of DLBCL cell lines), the “subset of DLBCL cell lines in which apoptosis was induced” value came out at 58%.
